{"source": "patent US8134010B2", "about": "“Thiazole-based nitric oxide donors having aryl substituent(s) and uses thereof” (priority 2004, dated 2012)", "key": {"[1]": {"system": "isolated rat aorta", "experiment": "Chronic administration of Pet-120 and vasoactivity determination in isolated aorta", "type": "in vivo", "conditions": "Pet-120 for 7 days", "description": "Male Sprague Dawley rats (250 to 300 grams) were used and housed under constant temperature and humidity conditions. The animals were anesthetized with intraperitoneal injection of ketamine and xylazine combination (50 and 10 mg/kg, respectively). An osmotic miniature pump (ALZA Corp., Palo Alto, Calif.) delivering constant volume (10 μl/hour) of vehicle and Pet-120 was connected to one of the intravenous catheters. The animals received 200 μg/hour for 7 days. As control, a similar number of animals underwent the same surgical procedure and received the vehicle alone (10 μl/hour of a solution consisting of 30% ethanol and 30% propylene glycol in sterile distilled water for injection). At the end of the infusion periods the rats were anesthetized by the combination described above. The abdomen was opened by midline incision and the thoracic aorta was isolate, washed and cleaned from the surrounding tissues.\nThe aorta of the rats which were treated as described hereinabove was cut into rings of 4-5 mm long each. The rings were mounted under 1 g tension in organ bath containing 30 ml of Krebs-Hansliet solution (pH 7.4) of the following composition (mM): NaCl […], CaCl2 1.6, MgSO4 1.2, KH2PO4 1.2, NaHCO3 25.0, D-glucose 11.1. At 37 C° and gassed with 95% O2- 5% CO2. […]"}, "[2]": {"system": "Sprague-Dawley rats", "experiment": "Effects of Pet-120 on the endothelial dysfunction of angiotensin II induced hypertension in rats", "type": "in vivo, rat", "conditions": "Pet-120 with Ang II for 14 days; aortic rings, acetylcholine curves", "description": "Male Sprague-Dawley rats were housed in separate cages and maintained in a temperature regulated room on a 12-hour light/dark cycle. Throughout the experiments, animals had free access to water and standard rat chow. Rats weighing 270 to 310 grams at the beginning of the experiments were anesthetized with ketamine and xylazine (50 and 10 mg/kg, respectively), and an osmotic miniature pump (model 2002; Alza Co) was implanted subcutaneously at the dorsum of the neck. Rats were selected at random and divided into three groups. The first group used as control and received the vehicle alone. The second group received angiotensin II (Ang II, Sigma Chemical Co) infusion (n=3) at a rate of 80 ng/minute or vehicle (n=2; for a period of 14 days. The third group (n=3) received both Ang II (as the second group) and Pet-120 at rate 167 ng/minute for 14 days. At the end of the treatment, rats were anesthetized with ketamine and xylazine (50 and 10 mg/kg, respectively), and both the osmotic pumps and the catheters were removed, and the animals were allowed to recover for 24 hours before initiation of the experiment.\nThereafter a section of the thoracic aorta (with endothelium) was removed from the rats, dissected free of fat and connective tissue in oxygenated Krebs-Hanseliet solution (pH 7.4). […]"}, "[3]": {"system": "isolated rat aorta", "experiment": "In vitro induction of tolerance to NO releasing compounds (vasorelaxation of pre-exposed aortic rings)", "type": "cell-based", "conditions": "rings pre-treated with epinephrine and then with 0.44 mM of the same compound", "description": "Aortic rings were prepared as described hereinabove, and were exposed to 0.44 mM GTN (vehicle was water:ethanol:propyleneglycol at proportional ratio of 1:1:1) for 1 hour before CCRC construction, to thereby induce tolerance to nitroglycerine. At the end of the tolerance induction period, rings were thrice washed with the path buffer (Krebs-bicrbonate) every 15 minutes for the following hour and then CCRC for vasorelaxation on GTN-induced tolerance rings were constructed for GTN (pretreated versus untreated rings, FIG. 15), in order to verify the ability to induce and measure GTN tolerance induction in vitro\nAttempted induction of tolerance to the NO-donating compounds of the present invention was performed under the same conditions as for GTN. Thus, in an exemplary experiment, rings were exposed to 0.44 mM solution of Pet-3 in the attempt to induce tolerance for Pet-3. CCRC were then measured for the vasorelaxing effect of Pet-3 on a group of rings which were pre-exposed to Pet-3 as to induce tolerance to Pet-3, and for an untreated control group. The above protocol was repeated with Pet-2, Pet-7, Pet-8, Pet-12, Pet-24, Pet-43, Pet-149 and Pet-152."}, "[4]": {"system": "isolated rat aorta", "experiment": "Cross-tolerance studies on aortic rings (GTN / Pet-12 pre-treatment)", "type": "cell-based", "conditions": "aorta pre-treated with GTN", "description": "Cross-tolerance studies were conducted using the same technique described above for measuring vasorelaxation of aortic rings from rats. Two groups of aortic rings samples were pre-treated with GTN, then one group was measured for vasorelaxation by GTN and the second group for vasorelaxation by Pet-12, an exemplary NO-donor according to the present invention. For the opposite cross-tolerance studies, two groups of aortic rings samples were pre-treated with Pet-12, then one group was measured for vasorelaxation by GTN and the second group for vasorelaxation by Pet-12."}}, "note": "Entries after “also recorded” stand apart in the source; their conditions may differ.", "data": [{"compound": "Cc1nc(-c2ccc([N+](=O)[O-])cc2)sc1CCO[N+](=O)[O-]", "note": "[Pet-120, 4-Methyl-5-(2-nitrooxy-ethyl)-2-(4-nitro-phenyl)-thiazole]", "values": [{"measurement": "tolerance induction after daily in-vivo administration over 7 days versus single dose (vasorelaxation in isolated aorta)", "setting": "[1]", "result": "absence of tolerance inducement; also recorded: not to induce tolerance"}, {"measurement": "vasorelaxation after Ang II induced hypertension", "setting": "[2]", "result": "notable capacity to induce vasorelaxation"}, {"measurement": "tolerance induction in vitro (vasorelaxation, pre-treated versus control rings)", "setting": "[3]", "result": "absence of tolerance induction; also recorded: lack of tolerance inducement"}, {"measurement": "vasorelaxation in rings made tolerant to GTN (cross-tolerance)", "setting": "[4]", "result": "can even induce vasorelaxation in rat aorta of rats after tolerance has been induced therein by chronic use of GTN"}]}]}
